Source: patent US8455522B2, “Benzoxazolone derivatives as aldosterone synthase inhibitors” (Novartis AG, priority 2009, dated 2013)

Columns and labels:
[1] = molecular target: T1, aldosterone synthase (Homo sapiens, UniProt P19099); experiment: Aldosterone cell secretion in NCI-H295R cells (aldosterone synthase inhibition, SPA); assay type: cell-based; conditions: human adrenocortical carcinoma NCI-H295R cells, 1 μM Ang II, 24 hr
T1 construct: host or cells: NCI-H295R
T1 sequence (P19099 25-503): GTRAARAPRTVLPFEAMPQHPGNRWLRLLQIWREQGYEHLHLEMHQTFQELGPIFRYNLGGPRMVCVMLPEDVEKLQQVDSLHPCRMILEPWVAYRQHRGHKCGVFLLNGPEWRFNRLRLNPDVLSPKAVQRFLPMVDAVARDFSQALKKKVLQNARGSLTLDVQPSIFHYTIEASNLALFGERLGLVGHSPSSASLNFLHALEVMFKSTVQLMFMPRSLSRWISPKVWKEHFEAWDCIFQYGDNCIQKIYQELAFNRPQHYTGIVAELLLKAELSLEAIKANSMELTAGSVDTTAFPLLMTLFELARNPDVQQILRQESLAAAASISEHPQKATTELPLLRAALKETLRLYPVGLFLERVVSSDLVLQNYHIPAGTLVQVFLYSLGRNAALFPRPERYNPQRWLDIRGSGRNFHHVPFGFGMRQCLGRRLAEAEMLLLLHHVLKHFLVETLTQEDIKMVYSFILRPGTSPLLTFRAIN
From the text: In particular, the aldosterone synthase inhibitory activities in vitro can be determined by the following assay.
Human adrenocortical carcinoma NCI-H295R cell line was obtained from American Type Culture Collection (Manassas, Va.). Insulin/transferrin/selenium (ITS)-A supplement (100×). DMEM/F-12, antibiotic/antimycotic (100×), and fetal bovine serum (FBS) were purchased from Invitrogen (Carlsbad, Calif.). Anti-mouse PVT scintillation proximity assay (SPA) beads and NBS 96-well plates were obtained from GE Health Sciences (Piscataway, N.J.) and Corning (Acton, Mass.), respectively. Solid black 96-well flat bottom plates were purchased from Costar (Corning, N.Y.). Aldosterone and angiotensin (Ang II) were purchased from Sigma (St. Louis, Mo.). D-[1,2,6,7-^3H(N)]aldosterone was acquired from PerkinElmer (Boston, Mass.). Nu-serum was a product of BD Biosciences (Franklin Lakes, N.J.). The NADPH regenerating system, dibenzylfluorescein (DBF), and human aromatase Supersomes® were obtained from Gentest (Woburn, Mass.).
For in vitro measurement of aldosterone activity, human adrenocortical carcinoma NCI-H295R cells are seeded in NBS 96-well plates at a density of 25,000 cells/well in 100 μl of a growth medium containing DMEM/F12 supplemented with 10% FCS, 2.5% Nu-serum, 1 μg ITS/ml, and 1× antibiotic/antimycotic. The medium is changed after culturing for 3 days at 37° C. under an atmosphere of 5% CO2/95% air. On the following day, cells are rinsed with 100 μl of phosphate-buffered saline (PBS) and incubated with 100 μl of treatment medium containing 1 μM Ang II and a compound at different concentrations in quadruplicate wells at 37° C. for 24 hr. At the end of incubation, 50 μl of medium is withdrawn from each well for measurement of aldosterone production by an SPA using mouse anti-aldosterone monoclonal antibodies.
Measurement of aldosterone activity can also be performed using a 96-well plate format. Each test sample is incubated with 0.02 μCi of D-[1,2,6,7-^3H(N)]aldosterone and 0.3 μg of anti-aldosterone antibody in PBS containing 0.1% Triton X-100, 0.1% bovine serum albumin, and 12% glycerol in a total volume of 200 μl at room temperature for 1 hr. Anti-mouse PVT SPA beads (50 μl) are then added to each well and incubated overnight at room temperature prior to counting in a Microbeta plate counter. The amount of aldosterone in each sample is calculated by comparing with a standard curve generated using known quantities of the hormone.
(§1) Inhibition of the release of certain steroids can be used as a measure of the respective enzyme inhibition by the added test compounds. The dose-dependent inhibition of enzymic activity by a compound is calculated by means of an inhibition plot which is characterized by an IC50.
The IC50 values for active test compounds are ascertained by a simple linear regression analysis in order to construct inhibition plots without data weighting. The inhibition plot is calculated by fitting a 4-parameter logistic function to the raw data points using the least squares method. The equation of the 4-parameter logistic function is calculated as follows: Y=(d−a)/((1+(x/c)b))+a, where: a=minimum data level, b=gradient, I […], d=maximum data level, x=inhibitor concentration.
The inhibition activity of aldosterone production can also be expressed in percentage inhibition (% inhibition) at a given concentration (e.g. % inhibition at 1 μM), which is the aldosterone level when the cell is treated with the given concentration of a compound of this invention (e.g. concentration of 1 μM) versus the aldosterone excretion when cell is free of the compound of the invention: % inhibition aldosterone production=[(Y−X)/Y]×100 wherein X is the level of aldosterone when the cell is treated with a compound of Formula I; and Y is the level of aldosterone when the cell is free of compound of Formula I.

[2] = molecular target: T2, CYP11B1 (Homo sapiens, UniProt P15538); experiment: Cortisol cell secretion in NCI-H295R cells (CYP11B1 activity); assay type: cell-based; conditions: NCI-H295R, compound at 1 μM, read-out: Cortisol cell secretion (% Inhib. @ 1 μM)
T2 construct: the NCI-H295R cells have Cyp11 B1 (steroid 11 β-hydroxylase); host or cells: NCI-H295R
T2 sequence (P15538 25-503): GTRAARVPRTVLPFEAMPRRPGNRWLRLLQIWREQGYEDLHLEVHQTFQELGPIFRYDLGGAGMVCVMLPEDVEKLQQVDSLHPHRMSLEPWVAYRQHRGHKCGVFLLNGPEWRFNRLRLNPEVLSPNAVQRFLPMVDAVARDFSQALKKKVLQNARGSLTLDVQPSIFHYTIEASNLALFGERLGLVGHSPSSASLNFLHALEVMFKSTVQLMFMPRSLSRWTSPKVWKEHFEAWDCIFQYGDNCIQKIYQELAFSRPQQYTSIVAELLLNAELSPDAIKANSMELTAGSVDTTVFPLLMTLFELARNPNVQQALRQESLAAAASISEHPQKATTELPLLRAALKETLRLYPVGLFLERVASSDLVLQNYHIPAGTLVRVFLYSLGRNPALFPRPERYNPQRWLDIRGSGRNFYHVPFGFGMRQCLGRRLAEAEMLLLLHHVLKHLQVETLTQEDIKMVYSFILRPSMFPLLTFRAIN
From the text: The in vitro inhibitory activities for CYP1B1 can be determined by the following assay.
The cell line NCI-H295R was originally isolated from an adrenocortical carcinoma and has been characterized in the literature through the stimulable secretion of steroid hormones and the presence of the enzymes essential for steroidogenesis. Thus, the NCI-H295R cells have Cyp11 B1 (steroid 11 β-hydroxylase). The cells show the physiological property of zonally undifferentiated human foetal adrenocortical cells which, however, have the capacity to produce the steroid hormones which are formed in the three, phenotypically distinguishable zones in the adult adrenal cortex.
The NCI-H295R cells (American Type Culture Collection, ATCC, Rockville, Md., USA) are grown in Dulbeoco's Modified Eagle'Ham F-12 Medium (DME/F12), which has been supplemented with Ulroser SF Serum (Soprachem, Geigy-Saint-Christophe, France), insulin, transferrin, selenite (I-T-S, Becton Dickinson Biosiences, Franklin lakes. NJ, USA) and antibiotics in 75 cm^2 cell culture vessels at 37° C. and in a 95% air-5% carbon dioxide atmosphere. The cells are subsequently transferred for colony formation into a 24-well incubation vessel. They are cultivated there in DME/F12 medium, which is now supplemented with 0.1% bovine serum instead of Ultroser SF for 24 hours. The experiment is initiated by cultivating the cells in DME/F12 medium which is supplemented with 0.1% bovine serum albumin and test compound, in the presence or absence of cell stimulants, for 72 hours. The test substance is added in a concentration range from 0.2 nanomolar to […]. Cell stimulants which can be used are angiotensin II (1 D or 100 nanomolar), potassium ions (16 millimolar), forskolin (10 micromolar) or a combination of two stimulants.
The excretion of aldosterone, cortisol, corticosterone and estradiol/estrone into the culture medium can be detected and quantified by commercially available, specific monoclonal antibodies in radioimmunoassays in accordance with the manufacturer's instructions.
as §1
The inhibition activity of cortisol production (CYP11B1 activity) can also be expressed in percentage inhibition (% inhibition) at a given concentration (e.g. % inhibition at 1 μM), which is the cortisol level when cell is treated with the given concentration of a compound of the invention (e.g. concentration of 1 μM) versus the cortisol excretion when cell is free of the compound of the invention. % inhibition cortisol production=[(Y′−X′)/Y′]×100 wherein X′ is the level of cortisol when the cell is treated with a compound of Formula I; and Y′ is the level of cortisol when the cell is free of compound of Formula I.

SMILES | IC50 [1] | inhibition at 1 µM [2]
Cn1c(=O)oc2ccc(-c3cncc(C(O)C(F)(F)F)c3)cc21 (centres unmarked) [Example 19, 3-methyl-5-(5-(2,2,2-trifluoro-1-hydroxyethyl)pyridin-3-yl)benzo[d]oxazol-2(3H)-one] | 1.4 nM | 95%
CN(c1cncc(-c2ccc3oc(=O)n(C)c3c2)c1)S(=O)(=O)C1CC1 [Example 21, N-methyl-N-(5-(3-methyl-2-oxo-2,3-dihydrobenzo[d]oxazol-5-yl)pyridin-3-yl)cyclopropanesulfonamide] | 68 nM | 65.5%
CCCS(=O)(=O)Nc1cncc(-c2ccc3oc(=O)n(C)c3c2)c1 [Example 28, N-(5-(3-methyl-2-oxo-2,3-dihydrobenzo[d]oxazol-5-yl)pyridin-3-yl)propane-1-sulfonamide] | 154 nM | 30%
Cn1c(=O)oc2ccc(-c3cncc(F)c3CO)cc21 [Example 36, 5-(5-fluoro-4-(hydroxymethyl)pyridin-3-yl)-3-methylbenzo[d]oxazol-2(3H)-one] | 144 nM | 13%
